# Measurements: patent US20080177075A1, “Compositions For Progeny Gender Control” (AQ+PLC Stephen Mabbott Associates, priority 2004, published 2008)
# Description: Suitable aqueous based compositions can be prepared by using an intermediate diluent such as a polyol, including glycols, preferably propylene glycol, glycerine, or sorbitol, and a wetting agent.
structure (smiles),measurement,value
Oc1cccc2cccnc12 [8-hydroxyquinoline],solubility in aqueous solution,generally insoluble or only poorly soluble
